Assays:
[1] = In-solution screening: CaP precipitation and aggregation in artificial renal tubular fluid (RTF); settings: 9 mM phosphate, 8 mM calcium, 4 h, RT
Experimental: An artificial renal tubular fluid (RTF) with a final composition of 0.05 mM oxalate, 0.005 mM sulphate, 408 mM sodium, 424 mM chloride, 0.26 mM potassium, 4 mM magnesium and 0.2 mM citrate in double distilled water was prepared according to a literature report (Fasano, J. M. et al., Kidney Int. 59, 169-178. DOI: 10.1046/j.1523-1755.2001.00477.x, 2001). The solution was filtered with a 0.45-μm syringe filter. Twenty mM Bis-Tris buffer was added to the reported protocol to ensure pH stability throughout experiments and pH was set to 7.2. The artificial RTF was stored at room temperature for up to four months. Stock solutions of 0.25 M phosphate and 1 M calcium were prepared in double distilled water and were stored separately at −20° C.
Twenty-x final concentration phosphate, 20× final concentration calcium and 10× final concentration compound dilutions were prepared in RTF. Assay mixture consisting of 80% RTF, 10% compound dilution, 5% phosphate dilution and 5% calcium dilution was prepared in Eppendorf tubes as follows. RTF (320 μL) was mixed with 20 μL phosphate dilution (final concentration of 9 mM), 40 μL compound dilution and 20 μL calcium dilution (final concentration of 8 mM). The assay mixture was vortexed after adding each component and 380 μL of the mixture were immediately added to 8-well glass bottom slides and incubated for 4 hat RT. CaP precipitation was assessed using a Leica DM 6000B microscope (Leica Microsystems, Wetzlar, Germany) in brightfield mode. For quantification 3 wells/condition with 3-4 images/well were imaged with a 40× objective. The total area covered with CaP deposits in percentage of the field of view and the mean size of CaP aggregates were determined.
In a first step, the influence of selected IP6 analogues (FIG. 3) on CaP precipitation and growth was assessed in vitro using artificial renal tubular fluid (RTF) (Table 1). In a previous study, the inventors investigated CaP protein particle formation in serum. However, an important difference to cardiovascular calcification lies in the extremely low protein content of the renal tubular fluid vs. the high abundance of proteins in blood, which can stabilize amorphous particles. Two cut-offs were chosen for assessing efficacy. First, complete inhibition was defined as a >90% reduction of detected CaP precipitates compared to the control sample without compound.

[2] = previous study (Kletzmayr et al. 2020); cited from earlier work
[3] = system: RPTEC/TERT 1 human proximal tubule cells; test: CaP-induced CaOx crystallization on RPTEC monolayers; format: cell-based; settings: 1.2 mM oxalate, 4 h
Experimental: For the assessment of CaP-induced CaOx crystallization, after 24 h of incubation, Ca/P spiked medium was removed, and cells were washed twice with PBS. Subsequently, medium containing 1.2 mM oxalate and compound was added to each well. After 4 h of incubation at 37° C. and 5% CO2 treatment was removed, and cells washed once with PBS before staining.
For staining, ProxUp basal medium was mixed with calcein (500 nM final concentration), EthD (6 μM final concentration), CellMask stain ([…]) and Hoechst 33342. Staining mixture was added to RPTEC and cells were incubated for 30 min in the dark at 37° C. and 5% CO2. Staining solution was removed, cells were washed with PBS once and ProxUp basal medium was added. Cells were immediately imaged after staining. Images were obtained by epifluorescence microscopy at 37° C., using a Leica CTR6000 microscope. For quantification 3 wells/condition were prepared and 3 images/well were taken. For preliminary adhesion experiments images were taken with a 10× objective, for the imaging assay 20× objective images were taken.

[4] = system: C57BL/6 male mice on high phosphate diet; test: Mouse model of high phosphate-induced kidney damage; format: in vivo; settings: 100 mg/kg s.c. 3 times/week
Experimental: C57BL/6 male mice (12 weeks of age) were placed on either regular diet containing 0.35% inorganic phosphate or high phosphate diet containing 2.0% inorganic phosphate. These mice were subcutaneously injected with either (OEG2)2-IP4 (100 mg/kg) or vehicle (distilled water) three times a week and then sacrificed at 20 weeks of age to harvest their blood and kidneys. Some mice were transferred individually to metabolic cages to collect urine for 3 days before sacrifice. Serum FGF23 levels were measured using intact FGF23 ELISA (Kinos) according to the manufacturers' protocols. Serum and urine levels of phosphate were measured using Fuji Dri-Chem slides and the analyzer (Dri-Chem NX500V, Fuji, Tokyo, Japan). […] Quantitative RT-PCR reactions were performed using 20 ng of cDNA incubated with 410 nM of each primer and 6 μL of SYBR Green PCR Master mix (Toyoba, Osaka, Japan THUNDERBIRD SYBR qPCR Mix QPS-201) in a total volume of 12 μl. […] Relative mRNA levels were calculated by the comparative threshold cycle method using cyclophilin as an internal control. […] The collagen volume fraction (the ratio of the Sirius Red-positive area to the total area) was quantified using an image analysis software (IMAGE PRO 9.32, Medica Cybernetics, Rockville, MD, USA) as previously described (Hirano, Y. Kurosu et al., FEBS Open Bio. 10, 894-903. DOI:10.1002/2211-5463.1284, 2020). […]

[5] = reported, Schantl et al. 2020; cited from earlier work

SMILES: COCCOCCO[C@@H]1C(OP(=O)(O)O)[C@H](OCCOCCOC)[C@@H](OP(=O)(O)O)C(OP(=O)(O)O)[C@H]1OP(=O)(O)O (stereo partly shown) [(OEG2)2-IP4]
- effect on CaP precipitation / crystallization (in words) [1]: did not further increase the inhibitory activity
- efficacy on CaOx crystallization in solution [2]: limited efficacy
- calcium oxalate dihydrate (COD) in CaP-induced CaOx crystallization ([3]; 100 μM compound): almost entirely abolished
- CaOx crystal form in CaP-induced CaOx crystallization ([3]; after 24 h Ca/P, dose-dependent): revert CaOx crystallization from calcium oxalate monohydrate (COM), the predominant most stable form, to calcium oxalate dihydrate (COD)
- collagen volume fraction (fibrosis), Picro-Sirius red staining of the kidneys, vs vehicle [4]: reduced
- kidney damage and fibrosis markers (Spp1, IL36a, Ngal, MMP3, Col1a1 mRNA in kidney) vs vehicle control [4]: significantly reduced
- pharmacokinetic profile [5]: favorable

— patent publication US20240000811A1, “INOSITOL HEXAKISPHOSPHATE ANALOGUES FOR TREATMENT OF CALCIFICATION ASSOCIATED KIDNEY DISEASES” (INOSITEC AG, priority 2020, published 2024)
